Measurements reported in patent US5962640A, “Methods for preparing novel dipeptide compounds or pharmacuetically acceptable salts thereof” (Japan Energy Corporation, priority 1995, dated 1999).
Converted amounts (≈) assume the structure as drawn.

Tests used:
[1] = Pharmacokinetics in rats, intravenous or intraduodenal administration, plasma concentration; assay type: in vivo
Protocol: Metabolic characteristics of the dipeptide compounds of the present invention was evaluated using rats. Tested compounds dissolved in vehicle was administered intraduodenally or intravenously. After administration, blood was taken and the concentration of residual tested compound in plasma was analyzed. The dosage of the tested compound was described in table 3.

MT-4 cell line = test: Cytotoxicity to non-infected MT-4 cell line, MTT method; assay type: cell-based; details: non-infected MT-4 cells, 5 day culture
Protocol: According to a test method which was already reported in publications (H.Nakashima et al., Antimicrob. Agents Chemother.36, 1249-1255 (1992), etc.,), anti-HIV activity was evaluated, by using MT-4 cell line and HTLV-IIIB virus, MT-4 cells (2.5×10^4 well, MOI:001) infected with said HTLV-IIIB virus just before the addition were into 96-well microtiter plate wherein each well contained various concentration of tested compound. At the same time, in order to investigate cytotoxicity of tested compounds to MT-4 cell line, non-infected MT-4 cell line was cultured in the presence of various kinds of tested compound. After 5 day culture at 37° C. in a CO2 incubator, the number of vial cells was counted by MTT method. […]

HTLV-IIIB virus = test: Anti-HIV activity: protection of HTLV-IIIB infected MT-4 cells, MTT method; assay type: cell-based; details: MT-4 cells infected with HTLV-IIIB, 5 day culture; for EC50: Human immunodeficiency virus 1, MT4, 120 h
Protocol: The anti-HIV activity of the dipeptide compound of the present invention was evaluated as described below. That is, the inhibitory action of the compound on formation of HIV virus particles which infects T lymphocyte was evaluated by potency to prevent death of T lymphocyte accompanied by said virus infection.
According to a test method which was already reported in publications (H.Nakashima et al., Antimicrob. Agents Chemother.36, 1249-1255 (1992), etc.,), anti-HIV activity was evaluated, by using MT-4 cell line and HTLV-IIIB virus, MT-4 cells (2.5×10^4 well, MOI:001) infected with said HTLV-IIIB virus just before the addition were into 96-well microtiter plate wherein each well contained various concentration of tested compound. At the same time, in order to investigate cytotoxicity of tested compounds to MT-4 cell line, non-infected MT-4 cell line was cultured in the presence of various kinds of tested compound. After 5 day culture at 37° C. in a CO2 incubator, the number of vial cells was counted by MTT method.
Virus whose infectious value was 3.8×10^4 TCID 50/ml was used.

Recombinant HIV protease = target: T1, Recombinant HIV protease (Human immunodeficiency virus type 1 group M subtype B, UniProt P04585); test: HIV protease inhibitory activity (cleavage of synthetic hepta-peptide, HPLC); assay type: biochemical; details: for HIV protease inhibitory activity (%) / inhibition at 0.05 µM: 37° C., 60 min; for inhibition at 5 µM: read-out: HIV protease inhibitory activity (%)
T1 construct: Recombinant HIV protease
Protocol: Recombinant HIV protease (Biochemistry, 250 (9), 264 (1990)) and synthetic hepta-peptide (H-Ser-Gln-Asn-Tyr-Pro-Ile-Val-OH/trifluoroacetic acid salt) were used for assay of protease activity. Peptide fragment H-Pro-Ile-Val-OH formed by cleavage between -Tyr . . . Pro of said substrate after a reaction in the presence of various concentration of tested compound at 37° C. for 60 min. was determined by reversed phase HPLC and the inhibitory rate was calculated (referred to Japanese laid-open unexamined patent, No. 170722/1993).
The concentration of tested compound represents the final concentration thereof of the reaction mixture.

SMILES | AUC ([1]; i.d., 20.0 mg/kg) [µg/mL/min] | AUC ([1]; i.v., 10.0 mg/kg) [µg/mL/min] | Cytotoxicity CC50 (MT-4 cell line) [µg/mL] | Anti-HIV activity EC50 (HTLV-IIIB virus) [µg/mL] | HIV protease inhibitory activity (%) (Recombinant HIV protease; concentration 50 nM (final)) | HIV protease inhibitory activity (%) (Recombinant HIV protease; concentration 5 μM (final)) | inhibition at 0.05 µM (Recombinant HIV protease; concentration 50 nM (final)) [%] | inhibition at 5 µM (Recombinant HIV protease) [%] | AUC ([1]; i.d., 10.0 mg/kg) [µg/mL/min] | MRT ([1]; i.v., 10.0 mg/kg) [h] | EC50 (HTLV-IIIB virus) [µg/mL]
Cc1c(O)cccc1C(=O)N[C@@H](Cc1ccccc1)[C@H](O)C(=O)N1CSC[C@H]1C(=O)NC(C)(C)C [Compound of example 21, (R)-N-tert-butyl-3-[(2S,3S)-2-hydroxy-3-[3-hydroxy-2-methylbenzoy 1]amino-4-phenylbutanoyl]-1,3-thiazolidine-4-carboxamide] | 101 | 111 | 184 | 0.70 |  |  |  |  |  |  | 
Cc1c(O)cccc1C(=O)N[C@@H](Cc1ccccc1)[C@H](O)C(=O)N1CSC(C)(C)[C@H]1C(=O)NC(C)(C)C [Compound of example 22, (R)-N-tert-butyl-3-[(2S,3S)-2-hydroxy-3-[3-hydroxy-2-methylbenzoy 1]amino-4-phenylbutanoyl]-5,5-dimethyl-1,3-thiazolidine-4-carboxamide] | 106 | 111 | 156 | 0.15 | 87.6 | 99.0 |  |  |  |  | 
CCc1c(O)cccc1C(=O)N[C@@H](Cc1ccccc1)[C@H](O)C(=O)N1CSC[C@H]1C(=O)NC(C)(C)C [Compound of example 31, (R)-N-tert-butyl-3-[(2S,3S)-2-hydroxy-3-(2-ethyl-3-hydroxybenzoyl)amino-4-phenylbutanoyl]-1,3-thiazolidine-4-carboxamide] |  | 276 | 168 |  |  |  | 45.6 | 97.5 | 99 | 1.6 | 1.46 (≈ 2.84 µM)
Cc1ccccc1CNC(=O)[C@@H]1CSCN1C(=O)[C@@H](O)[C@H](Cc1ccccc1)NC(=O)c1cccc(O)c1C [Compound of example 34, (R)-N-(2-methylbenzyl)-3-[(2S,3S)-3-(3-hydroxy-2-methylbenzoyl)amino-2-hydroxy-4-phenylbutanoyl]-1,3-thiazolidine-4-carboxamide] |  | 124 | 24.5 |  |  |  | 69.8 | 96.7 | 40 |  | 5.35 (≈ 9.77 µM)
CCc1c(O)cccc1C(=O)N[C@@H](Cc1ccccc1)[C@H](O)C(=O)N1CSC[C@H]1C(=O)NCc1ccccc1C [Compound of example 35, (R)-N-(2-methylbenzyl)-3-[(2S,3S)-3-(2-ethyl-3-hydroxybenzoyl)amino-2-hydroxy-4-phenylbutanoyl]-1,3-thiazolidine-4-carboxamide] |  |  | 90.9 |  |  |  | 48.8 | 98.1 |  |  | 4.15 (≈ 7.39 µM)
CCc1c(O)cccc1C(=O)N[C@@H](Cc1ccccc1)[C@H](O)C(=O)N1CSC(C)(C)[C@H]1C(=O)NC(C)(C)C [Compound of example 36, (R)-N-tert-butyl-3-[(2S,3S)-3-(2-ethyl-3-hydroxybenzoyl)amino-2-hydroxy-4-phenylbutanoyl]-5,5-dimethyl-1,3-thiazolidine-4-carboxamide] |  | 174 | 103 |  |  |  | 83.5 | > 99 | 64 |  | 0.54 (≈ 0.997 µM)
CCc1c(O)cccc1C(=O)N[C@@H](Cc1ccccc1)[C@H](O)C(=O)N1CSC(C)(C)[C@H]1C(=O)NCc1ccccc1C [Compound of example 38, (R)-N-(2-methylbenzyl)-3-[(2S,3S)-3-(2-ethyl-3-hydroxybenzoyl)amino-2-hydroxy-4-phenylbutanoyl]-5,5-dimethyl-1,3-thiazolidine-4-carboxamide] |  |  | 19.5 |  |  |  | 97.3 | > 99 |  |  | 0.18 (≈ 0.305 µM)
CSC[C@H](NC(=O)COc1cccc2cnccc12)C(=O)N[C@@H](Cc1ccccc1)[C@H](O)C(=O)N1CSC[C@H]1C(=O)NC(C)(C)C [KNI-272, (R)-3-[(2S,3S)-3-(N-(isoquinoline-5-yloxy)acetyl-methylthio-L-alanyl)amino-2-hydroxy-4-phenylbutanoyl]1,3-thiazolidine-4-N'-t-butylcarboxamide, reference compound] |  | 224 | 115 | 0.21 |  |  |  |  | 98 |  | 
